Entries after “also recorded” stand apart in the source; their conditions may differ.
What was measured:
[1] = system: nicotinic receptors in brain; format: binding, mouse
[2] = system: nicotinic receptors of striatum membrane preparations; format: binding, mouse
[3] = system: nicotinic acetylcholine receptors (nAChR) of striatal synaptosomes; format: biochemical, mouse
cFos expression = details: mouse, in vivo
[4] = system: nAChRs containing the α6 subunit (brain sections); format: binding, mouse

How did the “number of sites with high affinity for the ligand” value (shortened to “number of sites with high affinity”) [1] turn out when `O=c1cccc2n1C[C@@H]1CNC[C@H]2C1` [cytisine] was run?
The value was “reduction; also recorded: no other difference could be detected”.

How did the “number of sites with high affinity” value [1] turn out when `Clc1ccc(C2CC3CCC2N3)cn1` (stereo not drawn) [epibatidine] was run?
Its value is “reduction; also recorded: no other difference could be detected”.

What about the “total number of epibatidine sites” value [2] of the same compound?
Its value is “could not show a reduction”.

`CN1CCCC1c1cccnc1` (stereo not drawn) [nicotine] was tested. Which “change in the affinity of the dopamine release response to nicotine (dose-response curve)” value [3] did it give?
Its value is “loss of affinity of an order of magnitude; also recorded: drop of one order of magnitude”.

And the “dopamine release peak induced by nicotine” value [3]?
The value was 50%.

What about the “effect of nicotine on dopamine release” value [3] of the same compound?
Its value is “completely absent”.

What about the “increase in dopamine release over the basal level” value [3] of the same compound?
The value was “about 100%”.

And the “number of sites with high affinity” value [1]?
The value was “reduction; also recorded: no other difference could be detected”.

What about the “activation of cFos expression in response to nicotine” value (cFos expression) of the same compound?
The value was “absence of activation”.

Which results are given for α-Conotoxin MII [αCtxMII]?
DA release peak induced by nicotine above the basal level in presence of αCtxMII [3]: 50%; sites sensitive to αCtxMII as share of the total number of epibatidine sites [2]: 20%; sites with high and low affinity for αCtxMII [2]: total disappearance; binding sites on brain sections [4]: presence of binding sites in three major anatomical systems; high affinity binding sites for the toxin [4]: complete disappearance

How did the “ligand bond (distribution of binding sites) in mutants versus Wt” value [1] turn out when α-bungarotoxin was run?
Its value is “not modified”.

From patent publication US7820876B2 (priority 2000, dated 2010)
